Measurements reported in US20230398228A1, “ERIBULIN-BASED ANTIBODY-DRUG CONJUGATES AND METHODS OF USE” (EISAI R&D MANAGEMENT CO., LTD., priority 2016, published 2023).
pEC50: −log10 of the molar value. Several values for one entry are separate records, joined by “and”; a condition that tells them apart may be missing. Equal entries are not always repeated.

What was measured:
HL-60 cells = experiment: Bystander killing assay, Nuclight Red HL-60; assay type: cell-based, human; settings: Homo sapiens; HL-60 cells treated with free eribulin; read-out: EC50, HL-60 (eribulin)
Procedure: The day before study commencement, Nuclight™ Green (NLG) IGROV1 cells were seeded at 5,000 cells/well into 96-well round bottom plates, followed by centrifugation at 1,000 rpm for 3 min at room temperature to ensure formation of a cell pellet. The plate was placed in the vessel of an Incucyte Zoom® (EssenBio science) and incubated at 37° C./5% CO2 overnight. The program was set to collect images of cell growth, and to determine total numbers of nuclear green-stained and nuclear red-stained cells as well as phase-confluency of the cells every two hours. […] 50 μL of cytotoxin solution was added to the NLG-IGROV1 cells and incubated for 30 min. During the incubation period, Nuclight™ Red (NLR) HL-60 (FR^neg) cells were diluted to 2×10^5, 1×10^5 or 5×10^4 cell/mL with fresh media. 50 μL of the NLR-HL60 cell suspension or medium alone was added to the NLG-IGROV1 wells, followed by centrifugation at 1,000 rpm for 3 min at room temperature to ensure re-formation of the cell pellet. The plate was placed back into the vessel of Incucyte Zoom (EssenBio science) and incubated at 37° C./5% CO2 for up to 5 days. Relative cell growth of NLG-IGROV1 was determined by comparison to no ADC or free drug alone added samples using green cell counts. Relative cell growth of HL60 was done similarly, except that red cell count was determined. Determination of IC50 values for both NLG-IGROV1 and NLR-HL-60 was determined using Prism (GraphPad).
In order to assess bystander killing activity, an assay was set up using two labeled cell lines. […] Cytotoxicity was monitored by an Incucyte Zoom® cell imager.

[1] = Maximum tolerated dose of eribulin in CD-1 mice; assay type: in vivo, mouse; settings: for toxicity, in words: q4dx3
Procedure: Naïve CD-1 mice were injected intravenously with 200 μL of eribulin according to the schedule in Table 22. Body weight was measured three times a week including prior to dose on each dosing day and 24 hours following each dose. […] The terminal body weight was measured and recorded. Euthanized mice at the end of the study (and if any mouse euthanized or found dead during the study) were processed for necropsy. Organs were examined for signs of tissue damage.

[2] = system: human BM-MSCs co-cultured with MKN-74 cells; experiment: 3D co-culture system (rStomach, zPredicta), MSC differentiation by flow cytometry; assay type: cell-based; settings: 7 days treatment, MORAb-202 10 nM, MORAb-003 10 nM, eribulin […] and 0.2 nM (Table 41)
Procedure: All mesenchymal stem cell (MSC)-containing 3D co-culture experiments were conducted in zPredicta, using organ-specific 3D extracellular matrix systems such as rStomach™. Bone marrow mesenchymal stem cells (BM-MSCs) in rStomach™ were co-cultured with the Nuc Red Light MKN-74 gastric cancer cell line in quadruplicate in 48-well format for 12 days. […] Prior to culture, BM-MSCs were evaluated for target antigen expression and for markers of MSC differentiation (Table 40) by flow cytometry.
Controls included untreated and vehicle-treated (PBS and DMSO) cultures. MSC differentiation was monitored by light microscopy. Once visible differentiation was observed, samples were harvested for staining and flow cytometry analysis.
Bone marrow mesenchymal stem cells (BM-MSCs) in rStomach™ (zPredicta) were co-cultured with the MKN-74 gastric cancer cell line for 12 days. […] Once visible MSC differentiation was observed by light microscopy, samples were harvested for staining and flow cytometry analysis.

IGROV1 cells = experiment: Crystal Violet cytotoxicity assay (Example 4), IGROV1; assay type: cell-based, human; settings: Homo sapiens, IGROV-1, mean of replicate experiments, read-out: Cytotoxicity IC50 (nM), IGROV1 (FR^hi, MSLN^neg)
Procedure: (§1) Test reagents were serial diluted 1:3 in 2 mL deep-well dilution plates, starting at 200 nM (10 dilutions total). […] Medium was then discarded. […] Plates were read at 570 nm. Data was analyzed using GraphPad Prism 6.

NCI-H2110 cells = experiment: Crystal Violet cytotoxicity assay (Example 4), NCI-H2110; assay type: cell-based, human; settings: Homo sapiens, mean of replicate experiments, read-out: Cytotoxicity IC50 (nM), NCI-H2110 (FR^med, MSLN^med)
Procedure: as §1

A431 cells = experiment: Crystal Violet cytotoxicity assay (Example 4), A431 (parental); assay type: cell-based, human; settings: Homo sapiens, A-431, mean of replicate experiments, read-out: Cytotoxicity IC50 (nM), A431 (FR^neg, MSLN^neg)
Procedure: Test reagents were serial diluted 1:3 in 2 mL deep-well dilution plates, starting at 200 nM (10 dilutions total). […] Medium was then discarded. […] Plates were read at 570 nm. Data was analyzed using GraphPad Prism 6. […]
MAL-PEG2-Val-Cit-PAB-eribulin (ER-001159569) was conjugated to eight different anti-human mesothelin antibodies (Table 1). Binding affinities of the parental antibodies were determined by BIAcore analysis, as described above in section 1.6.1. Aggregation levels for all anti-human mesothelin ADCs were determined by SEC-HPLC and the DAR was analyzed using HIC-HPLC. In vitro potency was evaluated using a Crystal Violet cell-based cytotoxicity assay in A3 (A431 stabily transfected with human mesothelin (MSLN), MSLN^hi), OVCAR3 (human ovarian, MSLN^hi), HEC-251 (human endometroid, MSLN^med), H226 (human lung squamous cell mesothelioma, MSLN^lo), and A431 parental (MSLN^neg) cells.

NCI-N87 cells = experiment: Crystal Violet cytotoxicity assay (Example 4), NCI-N87; assay type: cell-based, human; settings: Homo sapiens; NCI-N87-Luc cells; mean of replicate experiments; read-out: Cytotoxicity IC50 (nM), NCI-N87-Luc (FR^lo, MSLN^med, her2^hi)
Procedure: as §1

BT-474 cells = experiment: Crystal Violet cytotoxicity assay (Example 4), BT-474; assay type: cell-based, human; settings: Homo sapiens; BT-474 cells; mean of replicate experiments; read-out: Cytotoxicity IC50 (nM), BT-474 (FR^neg, MSLN^neg, her2^hi)
Procedure: as §1

ZR-75 cells = experiment: Crystal Violet cytotoxicity assay (Example 4), ZR-75; assay type: cell-based, human; settings: Homo sapiens, ZR75; ZR-75-1 cells; mean of replicate experiments; read-out: Cytotoxicity IC50 (nM), ZR-75-1 (FR^neg, MSLN^neg, her2^med)
Procedure: as §1

NUGC3 cells = experiment: Crystal Violet cytotoxicity assay (Example 4), NUGC3; assay type: cell-based, human; settings: Homo sapiens, NUGC-3; NUGC3-Luc cells; mean of replicate experiments; read-out: Cytotoxicity IC50 (nM), NUGC3-Luc (FR^neg, MSLN^neg, her2^neg)
Procedure: as §1

in vivo [3] = settings: female, NMRI nu/nu, mouse, iv
Procedure: (§2) Tumor fragments were implanted subcutaneously into the left flank of 40 NMRI nu/nu female mice, and tumor volume was monitored. Mice with a tumor volume of 100-160 mm^3 were randomized into one of four groups (Groups A-D, Table 39). […] Each group consisted of 8 animals. The day of randomization was designated as Day 0 of the experiment.
(§3) Tumor growth was evaluated by the measurement of two perpendicular diameters twice weekly, and tumor volume (TV), relative tumor volume (RTV) and treated/control (T/C) values were calculated. Body weight was also evaluated twice weekly as a parameter for toxicity, with the calculation of the body weight per group and body weight changes (BWC) relative to the start of treatment. Animals were sacrificed when the individual tumor volume exceeded 1 cm^3, or at the end of the study.

in vivo [4] = settings: female, NMRI nu/nu, mouse, iv; remark: listed apart in the source
Procedure: as §2, §3

[5] = system: Endo-12961 endometrial cancer patient-derived xenograft; experiment: Endometrial cancer PDx model Endo-12961; settings: for anti-tumor activity, in words: single i.v. dose
Procedure: as §2, §3

[6] = system: Endo-10590 endometrial cancer patient-derived xenograft; experiment: Endometrial cancer PDx model Endo-10590; settings: for anti-tumor activity, in words: single i.v. dose
Procedure: as §2, §3

[7] = MORAb-202 5 mg/kg or eribulin 3.2 mg/kg

Compound: C=C1C[C@@H]2CC[C@@]34C[C@H]5O[C@H]6[C@@H](O3)[C@H]3O[C@H](CC[C@@H]3O[C@H]6[C@H]5O4)CC(=O)C[C@@H]3[C@@H](OC)[C@@H](C[C@H](O)CN)O[C@H]3C[C@H]3O[C@@H](CC[C@@H]1O2)C[C@@H](C)C3=C [eribulin]
- pEC50 (HL-60 cells): 9.77
- clinical finding, in words ([1]; 3.2 mg/kg q4dx3, after the second dose): piloerection in all three mice
- body weight loss of individual mouse ([1]; 3.2 mg/kg q4dx3, after the third dose): 17% and 8%
- toxicity, in words ([1]; 3.2 mg/kg): severe weight loss
- toxicity, in words ([1]; doses up to 1.6 mg/kg): no toxicity
- body weight loss or clinical findings, in words ([1]; doses up to 1.6 mg/kg, q4dx3, i.v.): No significant body weight loss or clinical findings indicating toxicity
- gross organ changes at necropsy, in words ([1]; mouse, in vivo): No gross changes
- MTD ([1]; mouse, in vivo, iv, q4dx3, i.v., CD-1 mice): 1.6 mg/kg
- Percentage of live cells, Pericytes ([2]; PBS 14.6%): 25.8%
- Percentage of live cells, Adipocytes ([2]; PBS […]): 2.68%
- Percentage of live cells, MSCs ([2]; PBS […]): 29.9%
- IC50 (IGROV1 cells): 0.32 nM
- IC50 (NCI-H2110 cells): 0.199 nM
- IC50 (A431 cells): 0.653 nM
- IC50 (NCI-N87 cells): 0.257 nM
- IC50 (BT-474 cells): 0.151 nM
- IC50 (ZR-75 cells): 0.236 nM
- IC50 (NUGC3 cells): 0.445 nM
- MTD (in vivo [3]): 3.2 mg/kg
- MTD (in vivo [4]): 3.2 mg/kg
- tumor re-growth during the study, in words [5, 7]: began to re-grow
- anti-tumor activity, in words [5, 7]: significant anti-tumor activity
- anti-tumor activity, in words ([5]; eribulin 0.1 mg/kg): no significant anti-tumor activity
- effect on body weight, in words ([5]; first week post-treatment): temporarily affected body weight
- tumor re-growth during the study, in words [6, 7]: began to re-grow
- anti-tumor activity, in words [6, 7]: significant anti-tumor activity
- anti-tumor activity, in words ([6]; eribulin 0.1 mg/kg): no significant anti-tumor activity
- effect on body weight, in words ([6]; first week post-treatment): temporarily affected body weight
